The source of these data is US9573966B2, “Anti-cancer activity of novel bicyclic heterocycles” (Katholieke Universiteit Leuven, K.U.Leuven R&D, priority 2010, dated 2017).

Usually IC50 stands for the point on the concentration scale where inhibition reaches its midpoint.

A value given as a limit tells only on which side of the number the result lay.

One assay has as its system HSB-2 cells. Nature of the assay: Inhibition of HSB-2 leukemic cell line proliferation (WST-1). It counts as cell-based, human. Conditions: Homo sapiens, HSB2, 48 h, cytotoxicity on HSB-2 cells, two days incubation, WST-1 read-out. As for the experimental part:
HSB2 cell line, a human acute lymphoblastic leukemia (ATCC; CCL-120.1) cell line, was grown in RPMI-1640 medium (Lonza, Belgium) supplemented with 10% fetal calf serum (Hyclone, US) and antibiotics. Exponential growing phase cells were seed in flat bottom 96-well microplates (TTP, Switzerland) at 50000 cells per well in 220 μl of medium with compounds (in different concentrations) and incubated for two days at 37° C., 5% CO2. After incubation, 100 μl of supernatant were removed and 10 μl of WST-1 (Roche, Switzerland) were added. After 2 hour incubation at 37° C., 5% CO2, optical densities were measured at 450 nm. Proliferation is calculated with respect of control points (no compound and treatment with Triton X100 to have maximum and minimum proliferation data). The IC50 was determined from a graph with at least four points, each derived from the mean of at least 2 experiments. […] The results are shown in Table 1 for a number of compounds.
In general terms: Formazan colour is commonly taken as a measure of viable cells.
Consider `Cc1ccc(-c2nc3c(N4CCN(C(=O)COc5ccc(Cl)cc5)CC4)nc(N)nc3s2)cc1` [Example 295, 1-(4-(5-amino-2-p-tolylthiazolo[5,4-d]pyrimidin-7-yl)piperazin-1-yl)-2-(4-chlorophenoxy)ethanone], for which the IC50 is 0.23 µM. The same measure, in the same setting: then `COc1ccc(OCC(=O)N2CCN(c3nc(N)nc4sc(Cc5ccc(F)cc5)nc34)CC2)cc1` [Example 230, 1-(4-(5-amino-2-(4-fluorobenzyl)thiazolo[5,4-d]pyrimidin-7-yl)piperazin-1-yl)-2-(4-methoxyphenoxy)ethanone], with 2.21 µM. Still for that read-out and setting: then `COc1ccc(OCC(=O)N2CCN(c3nc(N)nc4sc(CCc5ccc(C)cc5)nc34)CC2)cc1` [Example 259, 1-(4-(5-amino-2-(4-methylphenethyl)thiazolo[5,4-d]pyrimidin-7-yl)piperazin-1-yl)-2-(4-methoxyphenoxy)ethanone], with 3 µM; and `Nc1nc(N2CCN(C(=O)COc3ccc(Br)cc3)CC2)c2nc(Cc3ccc(F)cc3)sc2n1` [Example 231, 1-(4-(5-amino-2-(4-fluorobenzyl)thiazolo[5,4-d]pyrimidin-7-yl)piperazin-1-yl)-2-(4-bromophenoxy)ethanone], with 2.63 µM.

Turning to `COc1ccc(CCc2nc3c(N4CCN(C(=O)COc5ccc(Br)cc5)CC4)nc(N)nc3s2)cc1OC` [Example 256, 1-(4-(5-amino-2-(3,4-dimethoxyphenethyl)thiazolo[5,4-d]pyrimidin-7-yl)piperazin-1-yl)-2-(4-bromophenoxy)ethanone], the IC50 is more than 10 µM. For `Nc1nc(N2CCN(C(=O)COc3ccc(O)cc3)CC2)c2nc(CCc3ccc(F)cc3)sc2n1` [Example 224, 1-(4-(5-amino-2-(4-fluorophenethyl)thiazolo[5,4-d]pyrimidin-7-yl)piperazin-1-yl)-2-(4-hydroxyphenoxy)ethanone], the IC50 came out at 3.94 µM. On to `Nc1nc(N2CCN(C(=O)COc3ccc(Cl)cc3)CC2)c2nc(CCCc3ccc(F)cc3)sc2n1` [Example 290, 1-(4-(5-amino-2-(3-(4-fluorophenyl)propyl)thiazolo[5,4-d]pyrimidin-7-yl)piperazin-1-yl)-2-(4-chlorophenoxy)ethanone], for which the IC50 was more than 10 µM.

On to `Nc1nc(N2CCN(C(=O)COc3ccc(Cl)cc3)CC2)c2nc(-c3ccccc3)sc2n1` [Example 215, 1-(4-(5-amino-2-phenylthiazolo[5,4-d]pyrimidin-7-yl)piperazin-1-yl)-2-(4-chlorophenoxy)ethanone], for which the IC50 is 0.24 µM. Same read-out and setting: then `COc1ccc(OCC(=O)N2CCN(c3nc(N)nc4sc(CCc5ccc(Br)cc5)nc34)CC2)cc1` [Example 298, 1-(4-(5-amino-2-(4-bromophenethyl)thiazolo[5,4-d]pyrimidin-7-yl)piperazin-1-yl)-2-(4-methoxyphenoxy)ethanone], with more than 10 µM. On the same count and under the same terms, then `Nc1nc(N2CCN(C(=O)COc3ccc(Cl)cc3)CC2)c2nc(CCCCc3ccc(F)cc3)sc2n1` [Example 292, 1-(4-(5-amino-2-(4-(4-fluorophenyl)butyl)thiazolo[5,4-d]pyrimidin-7-yl)piperazin-1-yl)-2-(4-chlorophenoxy)ethanone], with 9.79 µM; and `Cc1ccc(CCc2nc3c(N4CCN(C(=O)COc5ccc(Br)cc5)CC4)nc(N)nc3s2)cc1` [Example 258, 1-(4-(5-amino-2-(4-methylphenethyl)thiazolo[5,4-d]pyrimidin-7-yl)piperazin-1-yl)-2-(4-bromophenoxy)ethanone], with more than 10 µM. On the same count and under the same terms, then `COc1ccc(OCC(=O)N2CCN(c3nc(N)nc4sc(-c5ccc(C)cc5)nc34)CC2)cc1` [Example 294, 1-(4-(5-amino-2-p-tolylthiazolo[5,4-d]pyrimidin-7-yl)piperazin-1-yl)-2-(4-methoxyphenoxy)ethanone], with 4.16 µM; and `Nc1nc(N2CCN(C(=O)COc3ccc(F)cc3)CC2)c2cc(-c3ccccc3)sc2n1` [Example 370, 1-(4-(2-amino-6-phenylthieno[2,3-d]pyrimidin-4-yl)piperazin-1-yl)-2-(4-fluorophenoxy)ethanone], with 6.38 µM; and `CC(=O)c1ccc(OCC(=O)N2CCN(c3nc(N)nc4sc(CCc5ccc(F)cc5)nc34)CC2)cc1` [Example 227, 2-(4-acetylphenoxy)-1-(4-(5-amino-2-(4-fluorophenethyl)thiazolo[5,4-d]pyrimidin-7-yl)piperazin-1-yl)ethanone], with more than 10 µM. With `COc1ccc(OCC(=O)N2CCN(c3nc(N)nc4sc(CCCCc5ccc(F)cc5)nc34)CC2)cc1` [Example 293, 1-(4-(5-amino-2-(4-(4-fluorophenyl)butyl)thiazolo[5,4-d]pyrimidin-7-yl)piperazin-1-yl)-2-(4-methoxyphenoxy)ethanone], the IC50 was determined as 0.83 µM.

Regarding `Nc1nc(N2CCN(C(=O)COc3ccc(F)cc3)CC2)c2nc(-c3ccc(F)cc3)sc2n1` [Example 233, 1-(4-(5-amino-2-(4-fluorophenyl)thiazolo[5,4-d]pyrimidin-7-yl)piperazin-1-yl)-2-(4-fluorophenoxy)ethanone], the IC50 was more than 10 µM. Still for that read-out and setting: then `COc1ccc(OCC(=O)N2CCN(c3nc(N)nc4sc(CCc5cccc(OC)c5)nc34)CC2)cc1` [Example 253, 1-(4-(5-amino-2-(3-methoxyphenethyl)thiazolo[5,4-d]pyrimidin-7-yl)piperazin-1-yl)-2-(4-methoxyphenoxy)ethanone], with 4.99 µM; and `O=C(COc1ccc(Cl)cc1)N1CCN(c2ncnc3sc(-c4ccc(F)cc4)nc23)CC1` [Example 301, 1-(4-(2-(4-fluorophenyl)thiazolo[5,4-d]pyrimidin-7-yl)piperazin-1-yl)-2-(4-chlorophenoxy)ethanone], with 2.06 µM; and `COc1cccc(CCc2nc3c(N4CCN(C(=O)COc5ccc(Br)cc5)CC4)nc(N)nc3s2)c1` [Example 254, 1-(4-(5-amino-2-(3-methoxyphenethyl)thiazolo[5,4-d]pyrimidin-7-yl)piperazin-1-yl)-2-(4-bromophenoxy)ethanone], with more than 10 µM.

Turning to `COc1ccc(OCC(=O)N2CCN(c3nc(N)nc4sc(CCc5ccc(OC)c(OC)c5)nc34)CC2)cc1` [Example 257, 1-(4-(5-amino-2-(3,4-dimethoxyphenethyl)thiazolo[5,4-d]pyrimidin-7-yl)piperazin-1-yl)-2-(4-methoxyphenoxy)ethanone], the IC50 was more than 10 µM.

For `COc1ccc(OCC(=O)N2CCN(c3nc(N)nc4sc(CCCc5ccc(F)cc5)nc34)CC2)cc1` [Example 291, 1-(4-(5-amino-2-(3-(4-fluorophenyl)propyl)thiazolo[5,4-d]pyrimidin-7-yl)piperazin-1-yl)-2-(4-methoxyphenoxy)ethanone], the IC50 was more than 10 µM.

Regarding `Cc1ccc(CCc2nc3c(N4CCN(C(=O)COc5ccc(Cl)cc5)CC4)nc(N)nc3s2)cc1` [Example 260, 1-(4-(5-amino-2-(4-methylphenethyl)thiazolo[5,4-d]pyrimidin-7-yl)piperazin-1-yl)-2-(4-chlorophenoxy)ethanone], the IC50 is 4.49 µM. Same read-out and setting: then `Nc1nc(N2CCN(C(=O)COc3cccc(Cl)c3)CC2)c2nc(CCc3ccc(F)cc3)sc2n1` [Example 228, 1-(4-(5-amino-2-(4-fluorophenethyl)thiazolo[5,4-d]pyrimidin-7-yl)piperazin-1-yl)-2-(3-chlorophenoxy)ethanone], with more than 10 µM; and `Nc1nc(N2CCN(C(=O)COc3ccc(Cl)cc3)CC2)c2nc(CCc3ccc(Br)cc3)sc2n1` [Example 299, 1-(4-(5-amino-2-(4-bromophenethyl)thiazolo[5,4-d]pyrimidin-7-yl)piperazin-1-yl)-2-(4-chlorophenoxy)ethanone], with 3.72 µM; and `Nc1nc(N2CCN(C(=O)COc3ccc(Br)cc3)CC2)c2cc(-c3ccccc3)sc2n1` [Example 372, 1-(4-(2-amino-6-phenylthieno[2,3-d]pyrimidin-4-yl)piperazin-1-yl)-2-(4-bromophenoxy)ethanone], with 9.87 µM. In the case of `Nc1nc(N2CCN(C(=O)COc3ccc(OC(F)(F)F)cc3)CC2)c2nc(CCc3ccc(F)cc3)sc2n1` [Example 226, 1-(4-(5-amino-2-(4-fluorophenethyl)thiazolo[5,4-d]pyrimidin-7-yl)piperazin-1-yl)-2-(4-(trifluoromethoxy)phenoxy)ethanone], the IC50 is more than 10 µM.

As for `COc1cccc(CCc2nc3c(N4CCN(C(=O)COc5ccc(Cl)cc5)CC4)nc(N)nc3s2)c1` [Example 255, 1-(4-(5-amino-2-(3-methoxyphenethyl)thiazolo[5,4-d]pyrimidin-7-yl)piperazin-1-yl)-2-(4-chlorophenoxy)ethanone], the IC50 is 2.1 µM.

On to `COc1ccc(OCC(=O)N2CCN(c3nc(N)nc4sc(-c5ccc(F)cc5)nc34)CC2)cc1` [Example 234, 1-(4-(5-amino-2-(4-fluorophenyl)thiazolo[5,4-d]pyrimidin-7-yl)piperazin-1-yl)-2-(4-methoxyphenoxy)ethanone], for which the IC50 is 0.2 µM. Same read-out and setting: then `COC(=O)c1ccc(OCC(=O)N2CCN(c3nc(N)nc4sc(CCc5ccc(F)cc5)nc34)CC2)cc1` [Example 225, methyl 4-(2-(4-(5-amino-2-(4-fluorophenethyl)thiazolo[5,4-d]pyrimidin-7-yl)piperazin-1-yl)-2-oxoethoxy)benzoate], with more than 10 µM.

Still in this assay, the particulars now being: cytotoxicity on HSB-2 cells, two days incubation, WST-1 read-out.
On to `Nc1nc(N2CCN(C(=O)COc3ccc(Br)cc3)CC2)c2nc(-c3ccc(F)cc3)sc2n1` [Example 235, 1-(4-(5-amino-2-(4-fluorophenyl)thiazolo[5,4-d]pyrimidin-7-yl)piperazin-1-yl)-2-(4-bromophenoxy)ethanone], for which the IC50 was 0.55 µM.
